Test results from the CheMixHub viscosity set.

Assay: xn = mol fraction of the nth substance listed

CCCCC(=O)O + CCCCCO
viscosity [mPa·s], 100 kPa
Details | x1 = 0.0805 | x1 = 0.1593 | x1 = 0.2392 | x1 = 0.3508 | x1 = 0.4406 | x1 = 0.5609 | x1 = 0.6497 | x1 = 0.7392 | x1 = 0.8517 | x1 = 0.9395
293.15 K | 3.93 | 3.83 | 3.71 | 3.54 | 3.38 | 3.15 | 2.98 | 2.79 | 2.56 | 2.37
303.15 K | 2.98 | 2.92 | 2.85 | 2.74 | 2.63 | 2.48 | 2.36 | 2.24 | 2.08 | 1.96
313.15 K | 2.29 | 2.25 | 2.21 | 2.14 | 2.07 | 1.97 | 1.9 | 1.82 | 1.71 | 1.63
323.15 K | 1.79 | 1.76 | 1.73 | 1.68 | 1.64 | 1.58 | 1.54 | 1.49 | 1.43 | 1.38

Oc1cccc2ccccc12 + CCCCCOC(C)=O
Details | viscosity [mPa·s]
298.15 K, 101 kPa, x2 = 0.5 | 1.549

Oc1cccc(O)c1 + CCCCO
Details | viscosity [mPa·s]
293.15 K, 101 kPa, x1 = 0.28 | 19.75

Oc1cccc2ccccc12 + CCCCO
viscosity [mPa·s], 101 kPa
Details | x1 = 0.04 | x1 = 0.08 | x1 = 0.12 | x1 = 0.16 | x1 = 0.2
293.15 K | 3.278 | 3.6 | 3.953 | 4.407 | 4.888
303.15 K | 2.489 | 2.719 | 2.974 | 3.265 | 3.61
313.15 K | 1.952 | 2.106 | 2.289 | 2.512 | 2.745
323.15 K | 1.56 | 1.685 | 1.816 | 1.966 | 2.14

Oc1cccc(O)c1O + CCCC[N+](CCCC)(CCCC)CCCC.[Br-]
101.3 kPa, x2 = 0.5
Details | viscosity [mPa·s]
293.15 K | 30000
298.15 K | 18500
303.15 K | 11000
308.15 K | 6000
313.15 K | 3250
318.15 K | 1850
323.15 K | 1200

NCCNCCN + CCCCn1cc[n+](C)c1.F[B-](F)(F)F
Details | viscosity [mPa·s]
313.15 K, 101.33 kPa, x2 = 0.8948 | 46.45

CCCCOCCOCCOCCCC + CCCN
298.15 K, 101 kPa
Details | viscosity [mPa·s]
x1 = 0.0095 | 0.375
x1 = 0.0288 | 0.417
x1 = 0.0455 | 0.45
x1 = 0.0845 | 0.529
x1 = 0.1266 | 0.622
x1 = 0.1754 | 0.719
x1 = 0.2172 | 0.806
x1 = 0.2531 | 0.87
x1 = 0.266 | 0.904
x1 = 0.3172 | 0.994
x1 = 0.3559 | 1.055
x1 = 0.3977 | 1.129
x1 = 0.4621 | 1.24
x1 = 0.516 | 1.33
x1 = 0.5979 | 1.489
x1 = 0.6482 | 1.579
x1 = 0.6986 | 1.689
x1 = 0.7471 | 1.774
x1 = 0.7956 | 1.869
x1 = 0.8618 | 2.01
x1 = 0.9261 | 2.093
x1 = 0.9641 | 2.143

CCCCO + CCCO
Details | viscosity [mPa·s]
293.15 K, 101.33 kPa, x2 = 0.152 | 2.84
293.15 K, 101.33 kPa, x2 = 0.3302 | 2.715
293.15 K, 101.33 kPa, x2 = 0.5008 | 2.566
293.15 K, 101.33 kPa, x2 = 0.616 | 2.474
293.15 K, 101.33 kPa, x2 = 0.7172 | 2.41
293.15 K, 101.33 kPa, x2 = 0.8933 | 2.282
298.15 K, 101 kPa, x1 = 0.1009 | 2.024
298.15 K, 101 kPa, x1 = 0.2 | 2.082
298.15 K, 101 kPa, x1 = 0.3013 | 2.135
298.15 K, 101 kPa, x1 = 0.4026 | 2.194
298.15 K, 101 kPa, x1 = 0.5009 | 2.254
298.15 K, 101 kPa, x1 = 0.6055 | 2.319
298.15 K, 101 kPa, x1 = 0.6279 | 2.326
298.15 K, 101 kPa, x1 = 0.7983 | 2.432
298.15 K, 101 kPa, x1 = 0.8992 | 2.494
298.15 K, 101.33 kPa, x2 = 0.1147 | 2.507
298.15 K, 101.33 kPa, x2 = 0.3211 | 2.378
298.15 K, 101.33 kPa, x2 = 0.4966 | 2.261
298.15 K, 101.33 kPa, x2 = 0.6315 | 2.172
298.15 K, 101.33 kPa, x2 = 0.7297 | 2.118
298.15 K, 101.33 kPa, x2 = 0.9322 | 2.001

CCCCOCCOCCOCCCC + CCCO
298.15 K, 101.33 kPa
Details | viscosity [mPa·s]
x1 = 0.0034 | 1.944
x1 = 0.0097 | 1.937
x1 = 0.0158 | 1.93
x1 = 0.0252 | 1.917
x1 = 0.0426 | 1.895
x1 = 0.0734 | 1.866
x1 = 0.0979 | 1.849
x1 = 0.1509 | 1.832
x1 = 0.1955 | 1.824
x1 = 0.2419 | 1.827
x1 = 0.2937 | 1.837
x1 = 0.3481 | 1.851
x1 = 0.3959 | 1.868
x1 = 0.4376 | 1.884
x1 = 0.4827 | 1.901
x1 = 0.54 | 1.925
x1 = 0.5983 | 1.949
x1 = 0.6416 | 1.968
x1 = 0.6954 | 1.99
x1 = 0.7531 | 2.016
x1 = 0.8095 | 2.039
x1 = 0.8656 | 2.061
x1 = 0.9083 | 2.079
x1 = 0.9447 | 2.096
x1 = 0.9742 | 2.111

Oc1cccc(O)c1 + CCCO
viscosity [mPa·s], 101 kPa
Details | 293.15 K | 303.15 K | 323.15 K
x1 = 0.07 | 3.605 | – | 1.675
x1 = 0.28 | – | 12.05 | –

Oc1cccc2ccccc12 + CCCO
viscosity [mPa·s], 101 kPa
Details | x1 = 0.04 | x1 = 0.08 | x1 = 0.12 | x1 = 0.16 | x1 = 0.2
293.15 K | 2.564 | 2.904 | 3.349 | 3.844 | 4.423
303.15 K | 1.999 | 2.245 | 2.528 | 2.863 | 3.26
313.15 K | 1.592 | 1.696 | 1.867 | 2.114 | 2.396
323.15 K | 1.293 | 1.403 | 1.567 | 1.748 | 1.954

NCCNCCN + CCN(CC)CCO
viscosity [mPa·s], 101 kPa
Details | x1 = 0.1 | x1 = 0.1999 | x1 = 0.2999 | x1 = 0.3997 | x1 = 0.4997 | x1 = 0.5997 | x1 = 0.6996 | x1 = 0.7992 | x1 = 0.8989
293.15 K | 6.36 | 7.21 | 8 | 8.32 | 8.45 | 8.11 | 7.8 | 7.34 | 7.02
303.15 K | 4.38 | 4.95 | 5.25 | 5.5 | 5.64 | 5.52 | 5.31 | 5.08 | 4.89
313.15 K | 3.14 | 3.46 | 3.72 | 3.92 | 4.02 | 3.94 | 3.8 | 3.62 | 3.52
323.15 K | 2.28 | 2.54 | 2.72 | 2.9 | 3 | 2.95 | 2.88 | 2.77 | 2.69

NCCNCCN + CCO
viscosity [mPa·s], 100 kPa
Details | x2 = 0.1023 | x2 = 0.2001 | x2 = 0.3566 | x2 = 0.492 | x2 = 0.6001 | x2 = 0.6952 | x2 = 0.7703 | x2 = 0.8378 | x2 = 0.897 | x2 = 0.9523
298.15 K | 5.92 | 5.97 | 5.63 | 5.02 | 4.36 | 3.7 | 3.08 | 2.51 | 1.97 | 1.49
303.15 K | 4.85 | 4.98 | 4.76 | 4.25 | 3.74 | 3.17 | 2.69 | 2.2 | 1.76 | 1.34
308.15 K | 4.21 | 4.33 | 4.13 | 3.69 | 3.24 | 2.79 | 2.4 | 1.99 | 1.62 | 1.24

Oc1cccc(O)c1 + CCO
Details | viscosity [mPa·s]
323.15 K, 101 kPa, x1 = 0.07 | 1.265

Oc1cccc2ccccc12 + CCO
viscosity [mPa·s], 101 kPa
Details | x1 = 0.03 | x1 = 0.06 | x1 = 0.09 | x1 = 0.12 | x1 = 0.15
293.15 K | 1.425 | 1.638 | 1.885 | 2.205 | 2.538
303.15 K | 1.158 | 1.337 | 1.523 | 1.733 | 1.968
313.15 K | 0.964 | 1.103 | 1.251 | 1.417 | 1.6
323.15 K | 0.795 | 0.91 | 1.048 | 1.186 | 1.339

CCCCOCCOCCOCCCC + CCOC(=O)OCC
viscosity [mPa·s], 101.3 kPa
Details | 298.15 K | 308.15 K | 318.15 K
x1 = 0.0131 | 0.771 | 0.675 | 0.587
x1 = 0.0338 | 0.806 | 0.699 | 0.603
x1 = 0.0756 | 0.864 | 0.751 | 0.638
x1 = 0.1533 | 0.976 | 0.842 | 0.707
x1 = 0.2472 | 1.118 | 0.949 | 0.792
x1 = 0.3392 | 1.245 | 1.056 | 0.871
x1 = 0.4137 | 1.359 | 1.14 | 0.94
x1 = 0.425 | 1.379 | 1.153 | 0.95
x1 = 0.4831 | 1.457 | 1.22 | 1.002
x1 = 0.6085 | 1.63 | 1.357 | 1.105
x1 = 0.7927 | 1.892 | 1.556 | 1.255
x1 = 0.8959 | 2.018 | 1.656 | 1.328
x1 = 0.954 | 2.116 | 1.734 | 1.383

Oc1cccc(O)c1O + CC[N+](CC)(CC)CC.[Br-]
101.3 kPa, x2 = 0.333
Details | viscosity [mPa·s]
293.15 K | 46000
298.15 K | 32000
303.15 K | 23000
308.15 K | 16000
313.15 K | 10500
318.15 K | 7500
323.15 K | 5500

CC(=O)[O-].C[N+]1(CC2CO2)CCCC1=O (centres undefined) + CO
viscosity [mPa·s], 101 kPa
Details | 293.15 K | 298.15 K | 303.15 K | 308.15 K | 313.15 K
x1 = 0.036 | 0.71 | 0.66 | 0.62 | 0.57 | 0.52
x1 = 0.0744 | 0.92 | 0.85 | 0.78 | 0.72 | 0.73
x1 = 0.1088 | 1.12 | 1.03 | 0.94 | 0.87 | 0.8
x1 = 0.2024 | 1.69 | 1.52 | 1.38 | 1.26 | 1.15
x1 = 0.3033 | 2.35 | 2.09 | 1.87 | 1.69 | 1.53
x1 = 0.4042 | 3.02 | 2.66 | 2.36 | 2.1 | 1.89
x1 = 0.504 | 3.68 | 3.22 | 2.83 | 2.51 | 2.24
x1 = 0.6015 | 4.28 | 3.71 | 3.25 | 2.86 | 2.54
x1 = 0.7036 | 4.91 | 4.23 | 3.68 | 3.23 | 2.85
x1 = 0.8051 | 5.51 | 4.72 | 4.09 | 3.57 | 3.14
x1 = 0.9086 | 6.14 | 5.21 | 4.49 | 3.9 | 3.42
